Data taken from patent publication US8158577B2, “Modulation of cartilage homeostasis by active domains of cell binding extracellular matrix molecules” (priority 2004, dated 2012).

Legend:
K105 cells = experiment: Adhesion of K105 cells to chondroadherin in the presence of synthetic peptide (FIG. 3, 5A-5B, 13); format: cell-based, human; conditions: 1 hour at 37° C.
Experimental: Human cells (K9) originating from a human chondrosarcoma were a kind gift from Drs. Sven Inerot and Anders Lindahl, The Salgrenska University Hospital Gothenburg, Sweden. The K9 cells were cultured in Dulbeccos Modified Eagle Medium: Nutrient Mixture F12 (DMEM/F12 1:1) with GLUTAMAX I, supplemented with 10% fetal calf serum, 25 μg/ml ascorbic acid, 50 IU of penicillin and 50 μg/ml streptomycin (Life Technologies, Inc.). A different human cells line (K105) originating from a human chondrosarcoma was a kind gift from Dr. Sven Inerot, The Salgrenska University Hospital, Gothenburg, Sweden. The K105 cells were cultured in a mix of 40% Dulbeccos Modified Eagle Medium, 40% Minimum Essential Media (MEM) alpha Medium, 10% Nutrient Mixture F1 supplemented with 100 nM hydrocortisone, 100 ng/ml insulin, 10% fetal calf serum, 25 μg/ml ascorbic acid, 50 IU of penicillin and 50 μg/ml streptomycin (Life Technologies, Inc.). To harvest cells, culture dishes were rinsed three times with Ca^2+/Mg^2+-free PBS and the cells were incubated with 0.5% trypsin and 1 mM EDTA for 5 min. Detached cells were suspended in PBS containing 1 mg/ml trypsin inhibitor (Sigma) and then washed in PBS. To remove membrane-bound collagens the cells were treated with collagenase 100 U/ml (CLSPA; Worthington Biochemical Corp., Lakewood, N.J.) in PBS, 30 min. 37° C. and then washed in PBS.
Tissue culture 48-wells dishes (Nunclon, Nunc, Denmark) were coated overnight with 5 μg/ml chondroadherin in 4M Guanidine-HCl, 50 mM sodium acetate, pH 5.8, or for native protein in PBS. Alternatively coating was with 5 μg/ml collagen type II in PBS followed by after-coating with 0.5% BSA in PBS for 3 hours. Collagen type II was isolated from bovine nasal cartilage by pepsin digestion (11). Bacterially expressed chondroadherin was isolated as described above. Recombinant chondroadherin expressed in EBNA cell was cloned and purified as described elsewhere (8).
To test cell binding, the chondrosarcoma cells or bovine chondrocytes were suspended in PBS containing 0.1% BSA, 25 U/ml collagenase and added to the wells (50,000/well), in the absence or presence of various peptide pools or the synthetic peptides (200, 100, 50, 25, 12.5 μg/ml). Non-adherent cells were removed after 1 hour and adhesion was determined by measuring lysosomal N-acetylglucosaminidase (12). Adhesion and spreading was visualized by light microscopy. In the time studies, k105 cells were allowed to adhere for 30 minutes, unbound cells were removed and medium without serum supplemented with or without peptides (250 μg/ml), β1 integrin antibody (clone P4C10, Gibco BRL), EDTA (5 mM) was added. Cell morphology was visualized by light microscopy after 1, 3 and 20 hours.
Study design: Tissue culture dishes (48-wells) were coated with 5 μg/ml chondroadherin expressed in E. coli and blocked for non-specific binding with BSA. […] were suspended in PBS containing 0.1% BSA, 25 U/ml collagenase and added to the wells (50,000/well) in the presence of synthetic peptide to be tested and allowed to adhere for 1 hour at 37° C. Nonadherent cells were removed by washing, and adhesion was determined by analyzing lysosomal hexosaminidase.
A 12-mer peptide (1947.01) plus an N-terminal cysteine (CQLRGLRRWLEAK) (SEQ ID NO. 3) representing the candidate sequence identified by mass spectrometry were synthesized and its ability to inhibit cell adhesion was determined. Tissue culture dishes were coated with 5 μg/ml chondroadherin expressed in E. coli and blocked for non-specific binding with BSA. The cells were suspended in PBS containing 0.1% BSA, 25 U/ml collagenase and added to the wells (50,000/well) in the presence of synthetic peptide (200, 100, 50, 25, 12.5 μg/ml) and allowed to adhere for 1 hour at 37° C. Nonadherent cells were removed by washing, and adhesion was determined by analyzing lysosomal hexosaminidase. […]

[1] = system: IL-1 stimulated synoviocytes; experiment: IL-6 release in IL-1 stimulated synoviocytes (ELISA); format: cell-based, rat; conditions: 50-400 μM peptide, IL-1a 50 ng/ml, 72 hour
Experimental: The following experiments measure the IL-6 release in IL-1 stimulated synoviocytes.
Study design: From rats with antigen induced arthritis, the hyperproliferative synovium, pannus, was taken from the inflamed knee day four after disease onset. The pannus tissue was cut to small pieces in PBS with PEST (100 IU penicillin, 100 μg/ml streptomycin) and Fungizone (2.5 μg/ml)(all from InVitrogen, Sweden), before incubation in collagenase (400 U/ml, Worthington, USA) for 3 hours at 37° C., 5% CO2. Cells were centrifugated (8 min., room temperature, 1100 rpm.) and suspended in RPMI 1640 supplemented with 10% FCS (InVitrogen, Sweden), PEST and Fungizone and seeded in a 25 cm^2 flask at 37° C., 5% CO2. The following day, cells were rinsed once with medium and further incubated. When confluent, cells were trypsinated for 1 min (0.25% Trypsin with EDTA, InVitrogen, Sweden) counted and seeded in 96 well plates, 10000 cells/well/200 μl.
After 24 hours, the medium was changed and the cells were stimulated with human recombinant IL-1a, 50 ng/ml (Roche, Sweden). The peptide to be investigated was tested in triplets in the concentration interval 50-400 μM. After 72 hour incubation at 37° C., 5% CO2, the medium was collected for measurement of NO (Griess reaction) and IL-6 was analyzed by an ELISA, according to the manufacturer's instructions (BD Biosciences, USA).

[2] = system: m-BSA antigen induced monoarthritis in rat; experiment: In vivo antigen induced arthritis, knee-joint swelling; conditions: intra-articular, twice daily
Experimental: The following model experiment measure the effect of the investigated compound on knee-joint swelling using antigen induced arthritis.
The effect of locally administered test compound, 400 mM given twice daily, on the development of arthritis in m-BSA antigen induced monoarthritis in rat was evaluated. Animals treated with saline or Methotrexate (in clinically relevant dose) were used as controls.
Study design: Female Dark Agouti rats, weighing approximately 150 g (B&K breeding center, Denmark) were used. The animals were sensitised intradermally at the tail root with 1 mg mBSA (Sigma A-1009) dissolved in […] and emulsified in […] complete adjuvant (Sigma F 5881). Ten days later the rats were shaved (left knee) and challenged with an intraarticular (i.a) injection of […]. Test compounds were administered intra-articular (left knee) in […] four hours before challenge and thereafter twice daily. The development of arthritis (knee diameters) was registered with an odimeter/calliper. The procedures were carried out under a brief Enflurane anaesthesia. The animals were sacrificed at day 4 after challenge/first treatment.

[3] = system: IL-1 stimulated cartilage; experiment: NO release in IL-1 stimulated cartilage explants (Griess reaction); format: cell-based, bovine; conditions: 400 uM peptide, IL-1a 10 ng/ml
Experimental: The following experiments measure the effect of a peptide on NO release in IL-1 stimulated cartilage.
Study design: A skinned bovine nose (from cows 18-24 months old) was collected at Hörby slaughter house (Team Ugglarp, Sweden). The septum inside the nose was cut out and the mucosa and the perichondrium was removed before the cartilage was placed in PBS with PEST (100 IU penicillin, 100 μg/ml streptomycin) and 2.5 μg/ml Fungizone (all from Invitrogen, Sweden) for 2 hours at room temperature.
Two mm pieces were punched out of the cartilage. Each piece was placed in a 24-well cell culture plate (Falcon, Sweden) containing 1 ml cell culture medium, HAMs F12 (Invitrogen, Sweden) supplemented with 10 μg/ml BSA, […] (both from Sigma, Sweden), PEST (100 IU penicillin, […]) and 2.5 μg/ml Fungizone. After 24 hours, the medium was changed and the cartilage pieces were stimulated with human recombinant IL-1a, 10 ng/ml (Roche, Sweden). The peptides where tested in triplet at 20 and 400 μM. The cartilage tissue was incubated for another six days, mediums were exchanged every third day. On each occasion the media were collected for measurement of NO (Griess reaction).

H-[CQLRGLRRWLEAKASRPDATC]-OH (H-CQLRGLRRWLEAKASRPDATC-OH; also: cyclised (brackets), bond type not given here) [SEQ ID No. 9]
inhibitory effect on K105 cell adhesion to chondroadherin (Example II, FIG. 13) (K105 cells): inhibitory effect | IL-6-release from IL-1 stimulated synoviocytes [1]: decrease | disease-ameliorating effect compared with methotrexate [2]: in the same magnitude as methotrexate treatment | knee-joint swelling compared with saline treated animals ([2]; 4 days): decreased | NO-release from IL-1 stimulated cartilage explants [3]: decrease
